Legend:
[1] = target: human catalytic domain HDAC4 protein (Homo sapiens, UniProt P56524, A743G/DEL730-739/DEL742-742); test: Inhibition of HDAC4 catalytic domain enzymatic activity, Boc-Lys(Tfa)-AMC substrate, fluorescence; details: Class IIa selective substrate Boc-Lys(Tfa)-AMC, read-out: Biochemical HDAC-4 IC50;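 note: trypsin releases AMC from deacetylated substrate, fluorescence tracks enzyme activity, 15 min reaction at 37 °C, 100% activity defined by DMSO-only control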
[2] = system: cellular histone deacetylase enzymatic activity in Jurkat E6-1 cells; test: Inhibition of cellular HDAC activity, Boc-Lys(Tfa)-AMC substrate, in Jurkat E6-1 cells; format: cell-based; details: Homo sapiens, Class IIa selective substrate Boc-Lys(Tfa)-AMC
From the text: The potency of Class IIa Histone Deacetylase (HDAC) inhibitors is quantified by measuring the cellular histone deacetylase enzymatic activity using the Class IIa selective substrate, Boc-Lys(Tfa)-AMC. After penetration in Jurkat E6-1 cells, the substrate is deacetylated to Boc-Lys-AMC. After cell lysis and cleavage by trypsin, the fluorophore AMC is released from the deacetylated substrate only. The fluoresence of the sample is directly related to the histone deacetylase activity in the sample.
Jurkat E6.1 Cell Culture and Plating.
Jurkat E6.1 cells are cultured according to standard cell culture protocols in Jurkat E6.1 Growth Media (RPMI without phenol red, 10% FBS, 10 mM HEPES, and 1 mM Sodium Pyruvate). Jurkat E6.1 cells are counted using a Coulter Counter and resuspended in Jurkat E6.1 growth media at a concentration of 75,000 cells/35 μl. 35 μl or 75,000 cells is seeded into Greiner microtitre assay plates. The plates are then incubated at 37° C. and 5% CO2 while other assay components are being prepared.
Serially Dilute HDAC Inhibitor Compounds.
Serial dilutions of the HDAC inhibitors and control reference compound (1-(5-(3-((4-(1,3,4-oxadiazol-2-yl)phenoxy)methyl)-1,2,4-oxadiazol-5-yl)thiophen-2-yl)-2,2,2-trifluoroethanone) are made by first resuspending the lyophilized compound to a final concentration of 10 mM in 100% DMSO. Stocks of 70 μl aliquots of the 10 mM compound in DMSO are prepared and stored at −20° C. From one stock aliquot of each compound to be tested and the reference compound, a 16-point serial dilution is prepared according to Table 7 using a 125 μl 16-channel Matrix multi-channel pipette.
2 μl (200×) of each diluted solution and each control (full activity: 100% DMSO alone or full inhibition 1 mM) is stamped into V-bottom polypropylene 384-well compound plates using either the Bravo, Janus, or […] 16-channel Matrix multi-channel pipette. Each well with the 200× compound solution is diluted 1:20 by the addition of 38 μl Jurkat assay buffer+DMSO (9.5% DMSO, RPMI without phenol red, 0.09% FBS, 9 mM Hepes, and 0.9 mM Sodium Pyruvate equilibrated to room temperature)
Prepare 5× (500 μM) Boc-Lys(Tfa)-AMC Substrate.
5× (500 μM) substrate is prepared just prior to the addition to the assay. The 5× substrate is prepared by diluting a 100 mM Boc-Lys(Tfa)-AMC in DMSO solution 1:200 by adding it drop-wise to Jurkat assay medium (RPMI without phenol red, 0.1% FBS, 10 mM Hepes, and 1 mM Sodium Pyruvate equilibrated to 37° C.) while vortexing at slow speed to prevent precipitation.
10 ml of 3× lysis buffer is prepared with 8.8 ml of 3× stock lysis buffer (50 mM Tris-HCl, pH 8.0, 137 mM NaCl, 2.7 mM KCl, 1 mM MgCl2, 1% Nonidet P40 Substitute equilibrated to room temperature) and 1.2 ml of 3 mg/ml Trypsin equilibrated to room temperature.
5 μl of each solution of 1:20 diluted compound from above is transferred to the Greiner microtitre assay plates with 75,000 cells/well using the Bravo. Cells are then incubated for 2 hours at 37° C. and 5% CO2. The assay is then started by adding 10 μl of 5× (500 μM) substrate to the assay plate using either the Bravo or 16-channel Matrix multi-channel pipette. The cells are then incubated for 3 hours at 37° C. and 5% CO2. Next, 25 μl of 3× lysis buffer is added to each well using either the 125 μl 16 channel pipette or the Bravo. The assay plate is then incubated overnight (15-16 hours) at 37° C. and 5% CO2. The following day, the plates are shaken on an orbital shaker for 1 minute at 900 rpm. Finally the top read fluorescence (Excitation: 355 nm, Emission: 460 nm) is measured using PerkinElmer EnVision.

| SMILES | IC50 [1] | IC50 [2] |
| --- | --- | --- |
| O=C(NO)[C@@H]1[C@H](c2ccccc2)[C@H]1c1ccc(-c2ccc3c(c2)CN(C2CC2)C3)cc1 (racemic) [Compound 52, (1R*,2R*,3R*)-2-(4-(2-cyclopropylisoindolin-5-yl)phenyl)-N-hydroxy-3-phenylcyclopropanecarboxamide] | 480 nM | 1790 nM |
| O=C(NO)[C@H]1[C@H](c2ccnc(C3CC3)c2)[C@H]1c1ccccc1F [Compound 28c, (1S,2R,3R)-2-(2-Cyclopropylpyridin-4-yl)-3-(2-fluorophenyl)-N-hydroxycyclopropanecarboxamide] | 40 nM | 530 nM |
| O=C(NO)[C@@H]1[C@H](c2ccccc2)[C@H]1c1cccc(N2CCC(N3CCCC3)CC2)c1 (racemic) [Compound 56g, (1R*,2R*,3R*)—N-Hydroxy-2-phenyl-3-(3-(4-(pyrrolidin-1-yl)piperidin-1-yl)phenyl)cyclopropanecarboxamide] | 390 nM | 2180 nM |
| CN1CCN(c2ccc([C@H]3[C@H](C(=O)NO)[C@@H]3c3ccccc3)cc2)CC1 (racemic) [Compound 56i, (1R*,2R*,3R*)—N-Hydroxy-2-(4-(4-methylpiperazin-1-yl)phenyl)-3-phenylcyclopropanecarboxamide] | 140 nM | 1310 nM |
| O=C(NO)[C@H]1[C@H](c2ccc(NCC(F)(F)F)nc2)[C@H]1c1ccccc1F [Compound 106, (1S,2R,3R)-2-(2-Fluorophenyl)-N-hydroxy-3-(6-((2,2,2-trifluoroethyl)amino)pyridin-3-yl)cyclopropanecarboxamide] | 170 nM | 1410 nM |
| O=C(NO)[C@@H]1[C@H](c2ccccc2)[C@H]1c1ccc(NS(=O)(=O)C2CC2)cc1 (racemic) [Compound 22, (1R*,2R*,3R*)-2-(4-(cyclopropanesulfonamido)phenyl)-N-hydroxy-3-phenylcyclopropanecarboxamide] | 50 nM | 1320 nM |
| Cc1ccccc1[C@H]1[C@H](C(=O)NO)[C@@H]1c1ccccc1 (racemic) [Compound 18a, (1R*,2R*,3R*)—N-Hydroxy-2-phenyl-3-o-tolylcyclopropanecarboxamide] | 1720 nM | 13200 nM |
| O=C(NO)[C@H]1[C@H](c2ccccc2)[C@H]1C1CCCCC1 (racemic) [Compound 5, (1R*,2R*,3R*)-2-Cyclohexyl-N-hydroxy-3-phenylcyclopropanecarboxamide] | 6220 nM | 36900 nM |
| O=C(NO)[C@@H]1[C@H](c2ccccc2)[C@H]1c1cnn(-c2ccc(C(F)(F)F)cn2)c1 [Compound 92b, (1R,2R,3R)—N-Hydroxy-2-phenyl-3-(1-(5-(trifluoromethyl)pyridin-2-yl)-1H-pyrazol-4-yl)cyclopropanecarboxamide] | 180 nM | 1170 nM |
| O=C(NO)[C@H]1[C@H](c2cc(C3CC3)nc(C3CC3)c2)[C@H]1c1ccccc1F [Compound 88, (1S,2R,3R)-2-(2,6-Dicyclopropylpyridin-4-yl)-3-(2-fluorophenyl)-N-hydroxycyclopropanecarboxamide] | 200 nM | 1480 nM |
| O=C(NO)[C@@H]1[C@H](c2ccccc2)[C@H]1c1ccc(Br)cc1 (racemic) [Compound 16c, (1R*,2R*,3R*)-2-(4-Bromophenyl)-N-hydroxy-3-phenylcyclopropanecarboxamide] | 370 nM | 2870 nM |
| O=C(NO)[C@@H]1[C@H](c2ccccc2)[C@H]1c1ccc(-c2cnc(-c3ccccc3)o2)cc1 (racemic) [Compound 48, (1R*,2R*,3R*)—N-Hydroxy-2-phenyl-3-(4-(2-phenyloxazol-5-yl)phenyl)cyclopropanecarboxamide] | 280 nM | 1260 nM |
| O=C(NO)[C@@H]1[C@H](c2ccccc2)[C@H]1c1ccccc1Br (racemic) [Compound 16a, (1R*,2R*,3R*)-2-(2-Bromophenyl)-N-hydroxy-3-phenylcyclopropanecarboxamide] | 620 nM | 6530 nM |
| O=C(NO)[C@@H]1[C@H](c2ccccc2)[C@H]1c1ccc(-c2ccc(-n3c4ccccc4c4ccccc43)cc2)cc1 (racemic) [Compound 54b, (1R*,2R*,3R*)-2-(4′-(9H-carbazol-9-yl)-[1,1′-biphenyl]-4-yl)-N-hydroxy-3-phenylcyclopropanecarboxamide] | 5660 nM | 50000 nM |

Further compounds by falling IC50 [2], results first:

| IC50 [1] | IC50 [2] | SMILES |
| --- | --- | --- |
| 90 nM | 970 nM | O=C(NO)[C@@H]1[C@H](c2ccccc2)[C@H]1c1ccc(-n2cccn2)cc1 (racemic) [Compound 65, (1R*,2R*,3R*)-2-(4-(1H-pyrazol-1-yl)phenyl)-N-hydroxy-3-phenylcyclopropanecarboxamide] |
|  | 880 nM | O=C(NO)[C@@H]1[C@H](c2ccccc2)[C@H]1c1ccc(-c2nccc(C(F)(F)F)n2)cc1 (racemic) [Compound 50d, (1R*,2R*,3R*)-2-(4-(4-Trifluoromethylpyrimidin-2-yl)phenyl)-N-hydroxy-3-phenylcyclopropanecarboxamide] |
| 160 nM | 780 nM | Cc1cnc(-c2cccc([C@H]3[C@H](C(=O)NO)[C@@H]3c3ccccc3)c2)nc1 [Compound 77, (1R,2R,3R)—N-Hydroxy-2-(3-(5-methylpyrimidin-2-yl)phenyl)-3-phenylcyclopropanecarboxamide] |
| 170 nM | 770 nM | O=C(NO)[C@@H]1[C@H](c2ccccc2)[C@H]1c1cccc(N2CCCn3nccc32)c1 [Compound 56h, (1R,2R,3R)-2-(3-(6,7-Dihydropyrazolo[1,5-a]pyrimidin-4(5H)-yl)phenyl)-N-hydroxy-3-phenylcyclopropanecarboxamide] |
| 120 nM | 750 nM | CC(C)N1CCN(c2ccc([C@H]3[C@H](C(=O)NO)[C@@H]3c3ccccc3F)cn2)CC1 [Compound 83, (1S,2R,3R)-2-(2-Fluorophenyl)-N-hydroxy-3-(6-(4-isopropylpiperazin-1-yl)pyridin-3-yl)cyclopropanecarboxamide] |
| 180 nM | 690 nM | O=C(NO)[C@@H]1[C@H](c2ccccc2)[C@H]1c1ccc(-c2ncc(C(F)(F)F)cn2)cc1 [Compound 50e, (1R,2R,3R)-2-(4-(5-Trifluoromethylpyrimidin-2-yl)phenyl)-N-hydroxy-3-phenylcyclopropanecarboxamide] |
|  | 480 nM | Cc1cnc(-c2ccc([C@H]3[C@H](C(=O)NO)[C@@H]3c3ccccc3)cc2)nc1 (racemic) [Compound 50k, (1R*,2R*,3R*)—N-Hydroxy-2-(4-(5-methylpyrimidin-2-yl)phenyl)-3-phenylcyclopropanecarboxamide] |
| 50 nM | 470 nM | Cc1ncc(-c2ccc([C@H]3[C@H](C(=O)NO)[C@@H]3c3ccccc3F)cc2)o1 [Compound 75b, (1S,2R,3R)-2-(2-Fluorophenyl)-N-hydroxy-3-(4-(2-methyloxazol-5-yl)phenyl)cyclopropanecarboxamide] |
| 40 nM | 440 nM | Cc1cnc(-c2ccc([C@H]3[C@H](C(=O)NO)[C@@H]3c3ccccc3)cc2)s1 [Compound 102, (1R,2R,3R)—N-hydroxy-2-(4-(5-methylthiazol-2-yl)phenyl)-3-phenylcyclopropanecarboxamide] |
|  | 420 nM | O=C(NO)[C@@H]1[C@H](c2ccccc2)[C@H]1c1ccc(-c2ncc(Cl)cn2)cc1 [Compound 50j, (1R,2R,3R)-2-(4-(5-Chloropyrimidin-2-yl)phenyl)-N-hydroxy-3-phenylcyclopropanecarboxamide] |

Reference: patent US9765054B2, “Histone deacetylase inhibitors and compositions and methods of use thereof” (CHDI Foundation, Inc., priority 2011, dated 2017)
